Experimental data as given in PMC8191578, “Targeting the TLR2 Receptor With a Novel Thymopentin-Derived Peptide Modulates Immune Responses” (Frontiers in Immunology, 2021).
Marks after values point to notes of the source that are not given here. Where no end group is shown, it is not given here.

Legend:
[1] = Ex vivo stability in human serum; assay type: in vitro ADME; conditions: human serum (Sigma), lipids removed by centrifugation, pre-incubated 15 min at 37°C, peptide 10 µg/mL, HPLC, logarithm-linear regression, mean ± SD, n=5
Protocol: Human serum was purchased from Sigma (St. Louis, MO, USA). […] The half-lives of CATH2, TP5, and CbTP (10 µg/mL) were evaluated in vitro following incubation at 37°C in human serum at different time points. The samples were collected into prechilled tubes containing 1 mL of acidic acetone (hydrochloric acid/acetone/H2O, 1:40:5, by volume) and centrifuged at 2,000 ×g for 20 min at 4°C.
The obtained precipitates were dried in vacuo, after which the dried precipitates were dissolved in 0.5 mL of 1 M acetic acid. The peptide analysis was carried out according to the protocol for the study of TP5 using HPLC ([26]). The half-lives of the target peptides were calculated by a logarithm-linear regression analysis of the peptide concentrations.

recombinant TLR2 = target: T1, recombinant TLR2 (Homo sapiens, UniProt O60603); test: Surface plasmon resonance binding to immobilized TLR2; conditions: SPR, ProteOn XPR36, GLH chip, 25°C, PBS with 1% Tween 20; CbTP 0-10 μM; 1:1 model; read-out: association rate constant Ka
T1 construct: purchased R&D Systems
T1 sequence (O60603 21-784, species assumed): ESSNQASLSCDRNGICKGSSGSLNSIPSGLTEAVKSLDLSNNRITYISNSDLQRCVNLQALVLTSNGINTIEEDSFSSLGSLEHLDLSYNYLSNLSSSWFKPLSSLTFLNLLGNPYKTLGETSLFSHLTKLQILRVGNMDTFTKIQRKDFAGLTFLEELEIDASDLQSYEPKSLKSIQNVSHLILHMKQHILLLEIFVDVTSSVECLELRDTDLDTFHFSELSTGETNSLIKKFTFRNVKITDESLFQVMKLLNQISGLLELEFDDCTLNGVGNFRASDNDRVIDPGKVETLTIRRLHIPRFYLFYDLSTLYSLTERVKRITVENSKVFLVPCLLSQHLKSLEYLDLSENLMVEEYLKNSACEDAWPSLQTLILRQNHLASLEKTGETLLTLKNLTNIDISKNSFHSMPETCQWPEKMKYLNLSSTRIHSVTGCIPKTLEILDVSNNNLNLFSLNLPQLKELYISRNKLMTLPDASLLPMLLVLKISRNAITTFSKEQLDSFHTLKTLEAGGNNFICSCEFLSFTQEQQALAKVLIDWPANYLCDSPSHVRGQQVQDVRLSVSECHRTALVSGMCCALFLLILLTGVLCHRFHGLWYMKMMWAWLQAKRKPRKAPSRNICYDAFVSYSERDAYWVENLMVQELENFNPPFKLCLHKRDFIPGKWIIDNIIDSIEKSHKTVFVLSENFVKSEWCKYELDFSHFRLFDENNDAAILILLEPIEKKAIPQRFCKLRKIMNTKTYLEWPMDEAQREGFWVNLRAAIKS
Protocol: Surface plasmon resonance (SPR) experiments were performed using a ProteOn XPR36 instrument (Bio-Rad, Hercules, CA, USA) with a ProteOn GLH sensor chip (Bio-Rad) at 25°C. The running buffer (PBS with 1% Tween 20) was continuously passed into reaction chamber. An SPR sensing chip with recombinant TLR2 (R&D Systems, Minneapolis, MN, USA) was immobilized by amino coupling to capture CbTP, as described in the manufacturer’s protocol. The binding affinity of CbTP to the TLR2-covered surface was examined in varying concentrations of the CbTP peptide (0, 1.25, 2.5, 5, and 10 μM). The running buffer was injected into the empty channels as a reference. To regenerate the chip surface at the end of each experiment, 10 mM Gly-HCl buffer (pH 2.5) was injected. Data analysis was conducted using ProteOn manager software (version 2.0). The binding curves were processed for the start injection alignment and baseline. The reference-subtracted sensorgram was then fitted to the curves labeling a homogeneous 1:1 model and protein surface data were grouped together to fit the association (K a) and dissociation (K d) rate constants. The equilibrium dissociation constant (KD) for the peptide-TLR2 interaction was calculated using the following equation: […]

t1/2 in human serum [1]	kon (recombinant TLR2)	Sequence
302 ± 34.5^a min	–	RFGRFLRKIRRFRPKVTITIQGSARFG [CATH2, Cathelicidin-2, reference compound]
353 ± 41.3^a min	3.61e+08 M⁻¹ s⁻¹	RFGRFLRKIRRFRRKDVY [CbTP]
